The record followed here is patent US20220220206A1, “TREATING CHRONIC LIVER DISEASE” (Mayo Foundation for Medical Education and Research, priority 2019, published 2022).

Structures are written as SMILES.

The subject of experiment [1] is FFC diet-fed C57BL/6J mice (diet-induced NASH). Kind of experiment: FFC diet-induced NASH mouse model, VCAM-1 blockade (antibody or AGI-1067). The conditions noted are these: AGI-1067 25 mg/kg i.p. daily for 15 days, vs vehicle. The format is in vivo. An excerpt:
C57BL/6J male mice were purchased from Jackson Laboratory (Bar Harbor, Me.). Mice were housed and bred in a temperature-controlled 12:12-hour light-dark cycle facility with free access to diet. The mice were fed either a chow diet (5053 PicoLab Rodent Diet 20, LabDiet, St Louis, Mo.) or a diet rich in fat, fructose, and cholesterol (FFC) at 8-weeks old for 24 weeks. FFC diet consists of 40% energy as fat (12% saturated fatty acid, 0.2% cholesterol) (AIN-76A Western Diet, TestDiet, St Louis, Mo.), with fructose (23.1 g/L) and glucose (18.9 g/L) in the drinking water. The FFC diet induces steatohepatitis with pronounced hepatocellular ballooning, lipoapoptosis, and progressive fibrosis with a high fidelity to the human NASH histology and metabolic profile. At 20 weeks on the diet, the mice were randomized to receive either anti-VCAM-1 neutralizing antibody (M/K-2.7), (Genetex, GTX14360) or IgG isotype antibody (BE0088, InVivoMAb). Mice were injected with 10 mg/kg body weight of either of the antibodies intraperitoneally, twice per week for 4 weeks. Another cohort of Chow or FFC diet-fed mice was randomized to receive either vehicle or VCAM-1 inhibitor succinobucol (AGI-1067). Mice were injected with either vehicle or 25 mg/kg body weight of AGI-1067 intraperitoneally, daily for 15 days. Total caloric intake at the 3rd week of VCAM-1 antibody treatment and the first week of AGI-1067 treatment was calculated based on the weight of food and drinking water consumption. At the third week of anti-VCAM-1 neutralizing antibody treatment, metabolic parameters, including oxygen consumption, carbon dioxide production, and locomotor activity, were measured using a Comprehensive Lab Animal Monitoring System (CLAMS, Columbus Instruments, OH). Anti-VCAM-1 antibody from Bio Xcell (West Lebanon, N.H.), (BE0027) was used for the CLAMS study. Blood glucose levels and plasma insulin levels were measured using Assure 4 (Arkray, Edina, Minn.) and Ultra-Sensitive Mouse Insulin enzyme-linked immunosorbent assay (ELISA) kit (Crystal Chem Inc., Downers Grove, Ill.), respectively. Homeostasis model assessment of insulin resistance (HOMA-IR) was calculated by using the following formula: HOMA-IR=26×fasting insulin level (ng/mL)×fasting glucose level (mg/dL)/405. Mice were sacrificed under general anesthesia induced by a ketamine/xylazine cocktail (83 mg/kg ketamine, 16 mg/kg xylazine, intraperitoneal injection). All interventions were made during the light cycle. Blood and liver samples were collected for further study.
Liver triglyceride levels were measured in mouse liver homogenates. Fifty milligrams of liver tissue was homogenized in a 5% NP-40 solution. EnzyChrom Triglyceride Kit (BioAssay System, CA) was used for the assay according to the manufacturer's instruction. Photometric absorbance was read at 570 nm using a Synergy H1 microplate reader (BioTek). Serum alanine aminotransferase (ALT) levels were measured by VetScan2 (Abaxis Veterinary Diagnostics, Union City, Calif.).
Liver histology was performed using tissue fixed in 10% formalin, dehydrated, and embedded in paraffin. Hematoxylin and eosin (H&E) staining and Sirius red staining were performed. Severity of NASH was assessed using nonalcoholic fatty liver disease (NAFLD) activity score (NAS), a semi-quantitative score that accounts for steatosis, ballooned hepatocytes, and lobular inflammation. Terminal deoxynucleotidyl transferase deoxyuridine triphosphate nick-end labeling (TUNEL) assay was performed using the ApopTag Peroxidase In Situ Apoptosis Detection Kit (Millipore Sigma, St. Louis, Mo.); diaminobenzidine (DAB) was used as a peroxidase substrate (Vector Laboratories, Burlingame, Calif.); 0.5% methyl green was used for the counterstain. […]

The subject of experiment [2] is VCAM-1 expression in TSEC. Kind of experiment: Palmitate-induced VCAM-1 expression in TSEC. The format is cell-based, mouse. The conditions noted are these: 500 μM PA, 16 hours. The procedure:
Transformed mouse liver sinusoidal endothelial cells (TSEC) were obtained. Primary human liver sinusoidal endothelial cells (LSEC) were purchased from ScienCell Research Laboratories (San Diego, Calif.). To yield primary mouse LSECs, cell suspensions obtained with liver collagenase perfusion were centrifuged at 50 g for 2 minutes to remove hepatocytes. The supernatant which includes non-parenchymal cells was subjected to LSEC isolation using CD146 MicroBeads (Miltenyi Biotec, Bergisch Gladbach, Germany) following the manufacture's instruction. […]
Cells were lysed using RIPA buffer (50 mM Tris-HCl, pH 7.4; 1% Nonidet P-40; 0.25% sodium deoxycholate; 150 mM NaCl; 1 mM EDTA with protease inhibitors) followed by centrifugation at 15,000 g for 15 minutes at 4° C. Protein concentrations of the lysates were measured by the Bradford assay method (Sigma-Aldrich). […] Proteins were detected using enhanced chemiluminescence reagents (GE Healthcare, Chicago, Ill.). β-actin and GAPDH protein levels were used as loading controls.
Total RNA was isolated with the RNeasy Mini Kit (Qiagen, Valencia, Calif.) and was reverse transcribed with moloney murine leukemia virus reverse transcriptase and oligo-dT random primers (both from Invitrogen, CA, USA). Quantification of gene expression was performed by real-time PCR using SYBR green fluorescence on a LightCycler 480 instrument (Roche Applied, IN, USA). […]

The test system of experiment [3] is active ITGβ1 in Huh7 cells. Kind of experiment: LPC-induced ITGβ1 activation in Huh7 cells (immunoprecipitation/immunoblot, immunofluorescence). It is filed as cell-based, human. The conditions noted are these: 10 μM SB203580. Here is the method:
Whole cell lysates (WCL) were obtained using immuno-precipitate (IP) buffer (50 mM Tris-HCl, pH 7.4; 1% Nonidet P-40; 150 mM NaCl) with protease inhibitor and phosphatase inhibitor followed by centrifugation at 15,000 g for 15 minutes at 4° C. Protein concentrations of the lysates were measured by the Bradford assay method (Sigma-Aldrich). In pull-down experiments, aliquots containing 1 mg of protein were incubated with either anti-ITGβ1 (MAB13), anti-ITGβ1 (9EG7) antibody or isotype IgG control antibody for 1 hour at 4° C., then incubated overnight with protein G sepharose beads (GE Healthcare) under rotary agitation. Pelleted proteins were washed with IP buffer for seven times, solubilized in SDS sample buffer, boiled for 10 minutes, and then subjected to SDS-PAGE and immunoblot analysis.
Huh7 cells were seeded on fibronectin-coated coverslips and fixed with 4% paraformaldehyde following LPC treatment. After permeabilization using 0.2% TritonX-100, the cells were blocked using blocking buffer (5% bovine serum albumin, 0.1% glycine in PBS) for one hour at room temperature, and then incubated with the primary antibody of interest overnight at 4° C. […] Pearson's correlation coefficient of co-localization was employed to quantify the degree of colocalization between fluorophores. Ten to 20 random fields in each group were selected for quantification and statistical analysis.
(In general: A western blot detects proteins with antibodies after separation by electrophoresis.)

`CC(C)(Sc1cc(C(C)(C)C)c(O)c(C(C)(C)C)c1)Sc1cc(C(C)(C)C)c(OC(=O)CCC(=O)O)c(C(C)(C)C)c1` [AGI-1067, succinobucol]: in experiment [1], the “MoMF-related hepatic inflammation by Galectin-3 staining of liver sections” value is “reduced”, the NAS score entry was “reduced”, the “hepatic mRNA expression of Acta2 (α-SMA)” value is listed as “attenuated” and the “hepatic mRNA expression of Ccr2” value is reported as “reduced”. In experiment [1], the “hepatic mRNA expression of Cd68” value was “reduced”, the “hepatic mRNA expression of Col1α1” value is listed as “attenuated”, the “hepatic mRNA expression of Tnfα” value is given as “reduced” and the hepatic steatosis entry is “did not alter”. For the same molecule, in experiment [1], the “liver injury as number of TUNEL positive hepatocyte” value was “reduced”; the liver triglyceride content entry is given as “did not alter”; the “plasma ALT levels” value was “did not reach the statistical significance”; the “stellate cell activation and liver fibrogenesis by Sirius red staining” value is “attenuated”. Further, in experiment [1], the “stellate cell activation and liver fibrogenesis by immunohistochemistry for α-SMA” value is listed as “attenuated”. In addition, the “PA-induced VCAM-1 protein level (Western blot)” value in experiment [2] was “inhibits”. In experiment [2] (real-time qPCR), the “PA-induced VCAM-1 mRNA expression” value is recorded as “inhibits”.
With `C[S+]([O-])c1ccc(-c2nc(-c3ccncc3)c(-c3ccc(F)cc3)[nH]2)cc1` (centres unmarked) [SB203580], the “LPC-induced activation of ITGβ1 (immunofluorescence microscopy)” value in experiment [3] (5 μM LPC 20 minutes) is reported as “diminished”. In addition, the “LPC-induced increase in active ITGβ1 (9EG7 immunoprecipitation, immunoblot)” value in experiment [3] (20 μM LPC 15-30 min) is “reduced”.
